Experimental data as given in US20090054329A1, “COMPOSITION WITH DOCOSAPENTAENOIC ACID” (N.V. Nutricia, priority 2005, published 2009).

How the values were obtained:
[1] = system: intestinal epithelial cell lines T84; experiment: Permeability for 4 kD FITC dextran (flux) across T84 monolayers; assay type: cell-based, human; conditions: for Permeability (Flux) Increased by IL-4: T84 monolayers, fatty acid 100 μM, 72 hr incubation, IL-4, 4 kDa FITC-dextran; for Effect on increase of permeability caused by cytokines (in words): incubations with cytokines (IL-4), 100 μM, 72 hr
Procedure: Monolayers (MC) of intestinal epithelial cell lines T84 (American Type Culture Collection (ATTC), Manassas, USA) were cultured on transwell filters (Corning, Costar BV, The Netherlands) allowing both mucosal and serosal sampling and stimulation of human intestinal epithelial cells. Two weeks post confluence the monolayers were incubated in the luminal compartment with polyunsaturated fatty acids DPA (7,10,13,16,19-docosapentaenoic acid, 22:5 n3), AA (arachidonic acid; 5,8,11,14-eicosatetraenoic acid), DHA (cis-4,7,10,13,16,19 docosahexaenoic acid), EPA (eicosapentaenoic acid) or control palmitic (C 16:0) acid (Palm) (Sigma, St. Louis, USA). The latter procedure was chosen to mimic the in vivo administration route of the dietary compounds. Cells were incubated with DPA, AA, DHA, EPA, or palmitic acid for 0, 24, 48 and 72 h at 100 μM.
(§1) Experiments were performed to evaluate basal barrier integrity and cytokine (IL-4) induced barrier disruption. The epithelial barrier function was determined by measuring the transepithelial resistance (TER, Ω.cm^2) by epithelial volt-ohm meter (EVOM; World Precision Instruments, Germany) and permeability for 4 kD FITC dextran (paracellular permeability marker, Sigma, USA). Epithelial permeability for 4 kDa FITC-dextran was determined as follows. Prior to dextran fluxes the medium was refreshed with culture medium without phenol red for one hour followed by addition of 5 μl (stock 100 mg/ml) 4 kDa FITC-dextran to the luminal compartment. After 60 min of incubation 100 μl sample was collected from the serosal compartment and the fluorescent signal measured at excitation wavelength 485 nm and emission 520 nm (FLUOstar Galaxy®, BMG Labtechnologies, USA). FITC-dextran fluxes were calculated as pmol FITC-dextran/cm^2/h. Statistical analyses were performed using the ANOVA (SPSS version 10).

[2] = system: intestinal epithelial cell lines T84; experiment: Transepithelial resistance (TER) of T84 monolayers; assay type: cell-based, human; conditions: for Resistance (TER) Disrupted by IL-4 / Resistance (TER) Basal: T84 monolayers, fatty acid 100 μM, 72 hr incubation; for Resistance (TER) Disrupted by IL-4: IL-4 mediated barrier disruption; for Effect on epithelial resistance (in words): both under basal and barrier disruptive conditions, 100 μM, 72 hr; for Effect on barrier integrity and epithelial paracellular permeability (in words): summary statement
Procedure: as §1, with “Monolayers (MC) of intestinal epithelial cell lines T84 (American Type Culture Collection (ATTC), Manassas, USA) were cultured on transwell filters (Corning, Costar BV, The Netherlands) allowing both mucosal and serosal sampling and stimulation of human intestinal epithelial cells. […] Louis, USA). The latter procedure was chosen to mimic the in vivo administration route of the dietary compounds. […] Experiments” for “Experiments”

[3] = system: MUC-2 expression; conditions: MC T84 and CC T84; compared to propionate and butyrate
Excerpt: See also the examples in applicants' co-pending European application no. 04748674.1).

SMILES | Permeability (Flux) Increased by IL-4 [1] | Effect on increase of permeability caused by cytokines (in words) [1] | Resistance (TER) Disrupted by IL-4 [2] | Resistance (TER) Basal [2] | Effect on epithelial resistance (in words) [2] | Effect on barrier integrity and epithelial paracellular permeability (in words) [2] | Stimulation of MUC-2 expression (mucus production) [3]
CCCCCC=CCC=CCC=CCC=CCCCC(=O)O [AA, 5,8,11,14-eicosatetraenoic acid] | 273 ± 76 pmol FITC-dextran/cm^2/h | effectively reduced | 337 ± 13 Ω.cm^2 | 634 ± 29 Ω.cm^2 | improve epithelial resistance | – | –
CCC=CCC=CCC=CCC=CCC=CC/C=C\CCC(=O)O [DHA, cis-4,7,10,13,16,19 docosahexaenoic acid] | 304 ± 75 pmol FITC-dextran/cm^2/h | effectively reduced | 328 ± 7 Ω.cm^2 | 584 ± 50 Ω.cm^2 | improve epithelial resistance | – | –
CCC=CCC=CCC=CCC=CCC=CCCCCCC(=O)O [DPA, 7,10,13,16,19-docosapentaenoic acid] | 216 ± 123 pmol FITC-dextran/cm^2/h | effectively reduced | 368 ± 4 Ω.cm^2 | 605 ± 27 Ω.cm^2 | improve epithelial resistance | effectively improves barrier integrity and reduces epithelial paracellular permeability | –
CC/C=C\C/C=C\C/C=C\C/C=C\C/C=C\CCCC(=O)O [EPA, eicosapentaenoic acid] | 236 ± 145 pmol FITC-dextran/cm^2/h | – | 375 ± 9 Ω.cm^2 | 584 ± 7 Ω.cm^2 | – | – | –
CCCCCCCCCCCCCCCC(=O)O [Palmitic acid, palmitic acid] | 646 ± 106 pmol FITC-dextran/cm^2/h | not | 272 ± 11 Ω.cm^2 | 496 ± 50 Ω.cm^2 | not effective | – | –
CC(=O)O [acetate] | – | – | – | – | – | – | more potent in stimulating MUC-2 expression
CCCCC/C=C\C/C=C\CCCCCCCC(=O)O [linoleic acid] | – | – | – | – | – | ineffective | –
